The values that follow come from US12324802B2, “Modulators of cystic fibrosis transmembrane conductance regulator” (Vertex Pharmaceuticals Incorporated, priority 2020, dated 2025).

In this experiment the target is T1, CFTR (F508del/MF-HBE cells) (Homo sapiens, UniProt P13569, DEL508-508).
T1 construct: human bronchial epithelial (HBE) cells derived from CF subjects heterozygous for F508del and a minimal function CFTR mutation; endogenous in cells; host or cells: primary human bronchial epithelial cells from CF subjects (F508del/MF genotype)
As to the kind of experiment: Ussing chamber assay of CFTR-mediated short-circuit currents (identification of potentiator compounds). The conditions noted are these: CFTR-mediated ISC in F508del/MF-HBE cells; incubated 18-24 hours at 37° C. with 10 μM (14S)-8-[3-(2-{dispiro[2.0.2.1]heptan-7-yl}ethoxy)-1H-pyrazol-1-yl]-...-2,2,4-trione, 20% human serum. The class given is cell-based. The procedure, abridged: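 F508del/minimal-function HBE cultures grown at air-liquid interface were incubated for 18–24 h at 37 °C with potentiator plus 10 μM corrector, in 20% human serum, and compounds stayed present during recording. Transepithelial ISC was recorded at 0 mV and 37 °C with 30 μM apical amiloride. CFTR current was taken as the peak response to 20 μM forskolin minus the steady state after a 20 μM inhibitor cocktail.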

T1 sequence (P13569 with tags, fused parts or gaps DEL508-508): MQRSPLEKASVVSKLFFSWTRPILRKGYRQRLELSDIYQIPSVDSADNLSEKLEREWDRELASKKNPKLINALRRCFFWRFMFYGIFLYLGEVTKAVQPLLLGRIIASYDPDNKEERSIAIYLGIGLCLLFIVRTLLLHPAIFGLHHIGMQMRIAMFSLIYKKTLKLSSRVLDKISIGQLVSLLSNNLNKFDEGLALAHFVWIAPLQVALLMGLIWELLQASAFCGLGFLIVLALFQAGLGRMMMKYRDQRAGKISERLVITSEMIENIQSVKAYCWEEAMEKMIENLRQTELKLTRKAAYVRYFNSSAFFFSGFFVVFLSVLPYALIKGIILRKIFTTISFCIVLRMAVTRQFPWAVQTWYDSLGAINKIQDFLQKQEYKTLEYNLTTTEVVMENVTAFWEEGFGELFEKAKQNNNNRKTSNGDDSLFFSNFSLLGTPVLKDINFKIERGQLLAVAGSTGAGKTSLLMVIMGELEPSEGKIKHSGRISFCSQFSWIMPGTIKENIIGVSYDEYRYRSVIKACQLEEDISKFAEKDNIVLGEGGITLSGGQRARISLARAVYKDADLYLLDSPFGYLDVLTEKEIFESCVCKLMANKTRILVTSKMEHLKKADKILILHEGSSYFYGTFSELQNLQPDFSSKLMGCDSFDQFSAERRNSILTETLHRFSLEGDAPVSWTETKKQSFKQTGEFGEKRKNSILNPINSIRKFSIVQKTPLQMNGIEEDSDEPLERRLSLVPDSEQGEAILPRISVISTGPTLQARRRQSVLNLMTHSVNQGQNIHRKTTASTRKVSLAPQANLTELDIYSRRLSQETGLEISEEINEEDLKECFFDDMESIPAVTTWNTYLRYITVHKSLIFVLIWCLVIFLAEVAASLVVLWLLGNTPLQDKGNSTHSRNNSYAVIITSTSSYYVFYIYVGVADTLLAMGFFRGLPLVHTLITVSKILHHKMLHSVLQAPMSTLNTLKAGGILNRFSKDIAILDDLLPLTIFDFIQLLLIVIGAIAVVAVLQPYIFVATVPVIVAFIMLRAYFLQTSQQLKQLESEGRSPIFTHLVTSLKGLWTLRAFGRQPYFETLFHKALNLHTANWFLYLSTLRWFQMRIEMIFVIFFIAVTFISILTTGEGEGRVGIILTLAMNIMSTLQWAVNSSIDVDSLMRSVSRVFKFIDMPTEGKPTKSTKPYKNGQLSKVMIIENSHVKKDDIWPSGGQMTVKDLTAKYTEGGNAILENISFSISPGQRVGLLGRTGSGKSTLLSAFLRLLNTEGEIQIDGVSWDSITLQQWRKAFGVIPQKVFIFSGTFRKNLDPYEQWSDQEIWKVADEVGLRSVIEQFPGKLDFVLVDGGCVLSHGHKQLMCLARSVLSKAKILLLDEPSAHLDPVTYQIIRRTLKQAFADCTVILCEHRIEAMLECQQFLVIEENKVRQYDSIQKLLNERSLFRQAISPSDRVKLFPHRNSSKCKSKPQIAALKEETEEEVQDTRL

In the case of `Nc1cc(C(F)(F)F)c2nc1-c1nnc(o1)C(O)(C(F)(F)F)CCCCC[C@@H]1COCC(=O)N21` (single isomer, unassigned) [Compound 117], the EC50 (commonly the concentration giving half of the maximal effect) is more than 1 µM.

On to `Nc1cc(C(F)(F)F)c2nc1-c1nnc(o1)C(O)(C(F)(F)F)CCCCCC(c1ccccc1)N2` (single isomer, unassigned) [Compound 119, 17-amino-12-phenyl-6,15-bis(trifluoromethyl)-19-oxa-3,4,13,18-tetrazatricyclo[12.3.1.12,5]nonadeca-1(18),2,4,14,16-pentaen-6-ol], for which the EC50 was less than 0.5 µM.

Take `Nc1cc(C(F)(F)F)c2nc1-c1nnc(o1)C(O)(C(F)(F)F)CCCCCC(c1ccccc1)N2` (single isomer, unassigned) [Compound 120, 17-amino-12-phenyl-6,15-bis(trifluoromethyl)-19-oxa-3,4,13,18-tetrazatricyclo[12.3.1.12,5]nonadeca-1(18),2,4,14,16-pentaen-6-ol]: the EC50 is less than 0.5 µM.

As to `Nc1cc(C(F)(F)F)c2nc1-c1nnc(o1)C(O)(C(F)(F)F)CCCCCC(c1ccccc1)N2` (single isomer, unassigned) [Compound 122, 17-amino-12-phenyl-6,15-bis(trifluoromethyl)-19-oxa-3,4,13,18-tetrazatricyclo[12.3.1.12,5]nonadeca-1(18),2,4,14,16-pentaen-6-ol], the EC50 was more than 1 µM.

Consider `Nc1cc(C(F)(F)F)c2nc1-c1nnc(o1)C(O)(C(F)(F)F)c1ccc(F)c(c1)CCC[C@@H]1CCCN21` (single isomer, unassigned) [Compound 130], for which the EC50 is more than 1 µM.

Regarding `Nc1cc(C(F)(F)F)c2nc1-c1nnc(o1)C(O)(C(F)(F)F)c1ccc(F)c(c1)CCC[C@@H]1CCCN21` (single isomer, unassigned) [Compound 131], the EC50 was less than 0.5 µM.

With `Nc1cc(S(=O)(=O)c2ccccc2)c2nc1-c1nnc(o1)C(O)(C(F)(F)F)CCCCC[C@@H]1CCCN21` (single isomer, unassigned) [Compound 140], the EC50 was more than 1 µM.

Consider `Nc1cc(S(=O)(=O)c2ccccc2)c2nc1-c1nnc(o1)C(O)(C(F)(F)F)CCCCC[C@@H]1CCCN21` (single isomer, unassigned) [Compound 141], for which the EC50 was less than 0.5 µM.

Regarding `CN(C)C(=O)C1CCCCCC(O)(C(F)(F)F)C2=NN=C(O2)c2nc(c(C(F)(F)F)cc2N)N1` (single isomer, unassigned) [Compound 148, 17-amino-6-hydroxy-N,N-dimethyl-6,15-bis(trifluoromethyl)-19-oxa-3,4,13,18-tetrazatricyclo[12.3.1.12,5]nonadeca-1(18),2,4,14,16-pentaene-12-carboxamide], the concentration for a half-maximal effect (EC50) is less than 0.5 µM.

In the case of `CN(C)C(=O)C1CCCCCC(O)(C(F)(F)F)C2=NN=C(O2)c2nc(c(C(F)(F)F)cc2N)N1` (single isomer, unassigned) [Compound 149, 17-amino-6-hydroxy-N,N-dimethyl-6,15-bis(trifluoromethyl)-19-oxa-3,4,13,18-tetrazatricyclo[12.3.1.12,5]nonadeca-1(18),2,4,14,16-pentaene-12-carboxamide], the EC50 was more than 1 µM.

For `CN(C)C(=O)C1CCCCCC(O)(C(F)(F)F)C2=NN=C(O2)c2nc(c(C(F)(F)F)cc2N)N1` (single isomer, unassigned) [Compound 150, 17-amino-6-hydroxy-N,N-dimethyl-6,15-bis(trifluoromethyl)-19-oxa-3,4,13,18-tetrazatricyclo[12.3.1.12,5]nonadeca-1(18),2,4,14,16-pentaene-12-carboxamide], the EC50 was more than 1 µM.

With `CN(C)C(=O)C1CCCCCC(O)(C(F)(F)F)C2=NN=C(O2)c2nc(c(C(F)(F)F)cc2N)N1` (single isomer, unassigned) [Compound 151, 17-amino-6-hydroxy-N,N-dimethyl-6,15-bis(trifluoromethyl)-19-oxa-3,4,13,18-tetrazatricyclo[12.3.1.12,5]nonadeca-1(18),2,4,14,16-pentaene-12-carboxamide], the EC50 was more than 1 µM.
